Read-outs that look alike come from different tables or passages of the source.
Experiments:
Design in all cases: CI90: unit not given beside the values
[1] = test system: HIV-1JR-FL envelope-mediated membrane fusion (HeLa-EnvJRFL and CEM NKR-CCR5 cells); assay: cell-based
Experimental: (§1) The HIV-1 RET assay has been described in detail previously (Litwin et al., 1996). Briefly, fluorescein octadecyl ester (F18; Molecular Probes, Eugene, Oreg.; 5 mg/ml in ethanol), was diluted 1:800 in DMEM labeling medium (DMEM; Invitrogen, Carlsbad, Calif.) with 10% fetal bovine serum (FBS; HyClone, Logan, Utah) and adjusted to an A506 of 0.34±10%. Octadecyl rhodamine B chloride (R18; Molecular Probes; 10 mg/ml in ethanol) was diluted 1:2050 in labeling medium and adjusted to an A565 of 0.52±10%. Both dyes were further diluted 2-fold by addition to cells in T75-cm^2 flasks. HeLa-EnvJRFL and CEM NKR-CCR5 cells were incubated overnight in F18- and R18-containing culture medium, respectively. The following day, medium from HeLa-EnvJRFL cells was removed and 10 ml of 0.5 mM EDTA was added and incubated at 37° C. for 5 min. EDTA was removed and the flask was returned to the incubator for another 5 min followed by striking of the flask to dislodge cells. […] Suspension CEM NKR-CCR5 cells were added directly to a separate 50-ml conical centrifuge tube. Both cell lines were centrifuged at 300×g for 5 min. The supernatant was discarded and cells were resuspended in 10 ml of PBS-/15% FBS. The centrifugation/wash step was repeated twice, after which the cells were counted and concentrations adjusted to 1.5×10^6 cells/ml. Ten μl of each cell type (15,000 cells) were seeded into wells of a 384-well plate. Inhibitor compounds were added immediately thereafter to bring the final well volume to 40 μl, and the plates were incubated for 4 h at 37° C. Compounds were tested individually and in combination at a fixed molar ratio or mass ratio over a range of serial dilutions. The plates were then read on a fluorescence plate reader (Victor^2, Perkin Elmer, Boston, Mass.) using the excitation/emission filter combinations shown in Table 6.
(§2) The “% RET” was calculated according to the following formula after subtraction of background (blank) readings: […]
(§3) The “% Inhibition” was calculated according to the following formula: […]
(§4) Fifty percent inhibition (IC50) values were determined by fitting the inhibition data with a non-linear, four-parameter, variable slope equation (GraphPad Prism, 4.02; GraphPad Software, San Diego, Calif.). Upper and lower inhibition values were constrained to 100% and 0%, respectively for curve fitting.
(§5) For testing, small molecule compounds were solubilized in dimethylsulfoxide (DMSO) to 10 mM and then diluted in DMSO to 200× the final concentration to be utilized in the antiviral assay. Serial dilutions of small molecules were conducted in DMSO. Subsequent dilutions were conducted in medium to achieve a final DMSO concentration in the assay of 0.5%. Peptides and mAbs were diluted in PBS in the absence of DMSO.
(§6) HeLa cells were engineered to express HIV-1 gp120/gp41 from the macrophage-tropic primary isolate JRFL as described (HeLa-EnvJRFL; Litwin et al., 1996). Briefly, the HIV-1LAI Env gene was excised from the plasmid pMA243 (Dragic et al., 1992) and the HIV-1JRFL Env gene was inserted. The HIV-1JRFL Env gene was amplified from the plasmid pUCFL112-1 (Koyanagi et al., 1987). The resulting plasmid, designated JR-FL-pMA243, was sequenced by standard methods and transfected into HeLa cells using lipofectin (Gibco BRL/Invitrogen, Carlsbad, Calif.). HeLa-EnvJRFL transfectants were selected in methotrexate (Sigma, St. Louis, Mo.) and cloned twice by limiting dilution. The transduced human T cell leukemia line CEM NKR-CCR5 cells were obtained from the NIH AIDS Research and Reference Program (Cat. No. 458).
(§7) The HIV-1 RET assay has been described in detail previously (Litwin et al., 1996). Briefly, fluorescein octadecyl ester (F18; Molecular Probes, Eugene, Oreg.; 5 mg/ml in ethanol), was diluted 1:800 in DMEM labeling medium (DMEM; Invitrogen, Carlsbad, Calif.) with 10% fetal bovine serum (FBS; HyClone, Logan, Utah) and adjusted to an A506 of 0.34±10%.

[2] = test system: reporter viruses pseudotyped with HIV-1SF162 envelope; type: cell-based; conditions: for CI50 / CI90: envelope SF162; for IC50 / IC90: 1st inhibitor alone, HIV-1 envelope SF162
Description: A self-inactivating (SIN) vector was derived from the pNL4-3ΔEnv-luciferase vector (Dragic et al. 1996) by deleting 507 basepairs in the U3 region of the 3′ long terminal repeat (LTR) so as to remove the TATA box and transcription factor binding sites. The human cytomegalovirus promoter was inserted upstream of the luciferase (luc) gene to enable expression of luciferase following integration.
Reporter viruses pseudotyped with HIV-1JR-FL or HIV-1SF162 envelopes were generated by cotransfection of 293T cells with the SIN vector and the appropriate pcDNA env-expressing vector as previously described (Dragic et al. 1996). […] Cultures were incubated for 72 h at 37° C. in DMEM containing 10% fetal bovine serum, 1 mg/mL puromycin, 0.3 mg/mL geneticin, antibiotics, and 0.5% DMSO. Luciferase activity (relative light units or RLU) was measured using BrightGlo reagent (Promega, Madison, Wis.) according to the manufacturer's instructions. Percent inhibition was calculated as: (1−RLU in the presence of inhibitor/RLU in the absence of inhibitor)×100.
Experimental design and data analysis were based on the combination index (CI) method (Chou et al. 1991; Chou et al. 1984). Compounds were tested individually and in combination at a fixed molar ratio over a range of serial dilutions. […] The mutually exclusive CI formula was used for combinations of CCR5 inhibitors, while the mutually non-exclusive formula was utilized for combinations of inhibitors to distinct targets (Chou et al. 1991). Each test was conducted 4-12 times. Synergy, additivity and antagonism are indicated by CI<1, CI=1 and CI>1, respectively.

[3] = biological target: HIV-1JR-FL envelope-mediated membrane fusion (HeLa-EnvJRFL and CEM NKR-CCR5 cells) (Homo sapiens, UniProt P51681); assay: cell-based; conditions: for Mean Dose Reduction (2D7) / Mean Dose Reduction (Cpd in combination): 2D7 in combination with the labelled inhibitor, 1:1 molar ratio
Chain of HIV-1JR-FL envelope-mediated membrane fusion (HeLa-EnvJRFL and CEM NKR-CCR5 cells) (Homo sapiens, UniProt P51681) (P51681 whole entry, the tested form may be a part): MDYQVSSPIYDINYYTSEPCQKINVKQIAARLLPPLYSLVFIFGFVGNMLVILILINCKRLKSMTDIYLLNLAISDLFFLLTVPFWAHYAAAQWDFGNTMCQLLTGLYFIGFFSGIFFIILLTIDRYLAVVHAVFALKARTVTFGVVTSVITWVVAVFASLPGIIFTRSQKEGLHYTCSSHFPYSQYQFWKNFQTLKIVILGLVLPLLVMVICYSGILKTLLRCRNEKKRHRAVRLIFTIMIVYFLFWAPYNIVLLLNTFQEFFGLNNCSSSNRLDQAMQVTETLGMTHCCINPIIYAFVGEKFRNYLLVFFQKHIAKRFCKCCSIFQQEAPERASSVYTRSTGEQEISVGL
Experimental: as §1, §2, §3, §4, §5, §6, §7

[4] = PRO 140 in combination with the labelled inhibitor, 1:1 molar ratio
[5] = labelled 1st inhibitor with 2nd inhibitor PRO 140, equimolar, mean ± SD of 4-12 assays
[6] = molar ratio PRO 140 to labelled inhibitor 1:5
[7] = molar ratio PRO 140 to labelled inhibitor 5:1
[8] = labelled 1st inhibitor with 2nd inhibitor PRO 140, equimolar (1:10 PRO 140 to zidovudine or nevirapine)
[9] = labelled 1st inhibitor with 2nd inhibitor UK-427,857, equimolar
[10] = SCH-D (Drug 1) with TAK-779 (Drug 2), molar ratio 1:1
[11] = inhibitor tested individually, experiment depicted in FIG. 11B
[12] = inhibitor tested individually, experiment depicted in FIG. 11A

COc1ccnc2[nH]cc(C(=O)C(=O)N3CCN(C(=O)c4ccccc4)C[C@H]3C)c12 [BMS-378806, (R)-N-(benzoyl)-3-methyl-N′-[(4-methoxy-7-azaindol-3-yl)-oxoacetyl]-piperazine]
Mean CI (Combination Index at IC50) [1, 4]: 1.21±0.21 | Mean Dose Reduction (Cpd in combination) [1, 4]: 2.85 ± 0.76 | Mean Dose Reduction (PRO 140) [1, 4]: 1.64 ± 0.30 | Mean Combination Index (at IC50) ([1]; PRO 140 in combination with the labelled inhibitor, molar ratio PRO 140 to inhibitor 1:5): 1.55 ± 0.24 | Mean Combination Index (at IC50) ([1]; PRO 140 in combination with the labelled inhibitor, molar ratio PRO 140 to inhibitor 5:1): 1.12 ± 0.10 | CI90 [1, 5]: 1.1 ± 0.22 | Mean Dose Reduction (Cpd. in combination) [1, 6]: 1.07 ± 0.31 | Mean Dose Reduction (PRO 140) [1, 6]: 3.64 ± 0.73 | Mean Dose Reduction (Cpd. in combination) [1, 7]: 8.88 ± 4.16 | Mean Dose Reduction (PRO 140) [1, 7]: 1.14 ± 0.06 | CI50 [2, 8]: 1.1 ± 0.28 | CI90 [2, 8]: 0.82 ± 0.21

COC[C@@H](c1ccc(C(F)(F)F)cc1)N1CCN(C2(C)CCN(C(=O)c3c(C)ncnc3C)CC2)C[C@@H]1C [SCH-D, 1-[(4,6-dimethyl-5-pyrimidinyl)carbonyl]-4-[4-[2-methoxy-1(R)-4-(trifluoromethyl)phenyl]ethyl-3(S)-methyl-1-piperazinyl]-4-methylpiperidine]
IC50 ([1]; 1st inhibitor alone (Table 13)): 3.2 nM | IC90 ([1]; 1st inhibitor alone (Table 13)): 16 nM | Mean Dose Reduction (Cpd in combination) [1, 4]: 3.90 ± 0.71 | Mean Dose Reduction (PRO 140) [1, 4]: 4.21 ± 0.96 | CI50 ([1]; labelled 1st inhibitor with 2nd inhibitor TAK-779, equimolar): 1.3 ± 0.18 | CI50 [1, 9]: 0.86 ± 0.03 | CI90 [1, 9]: 0.75 ± 0.02 | Mean Dose Reduction (Cpd. in combination) [1, 6]: 1.73 ± 0.19 | Mean Dose Reduction (PRO 140) [1, 6]: 9.95 ± 2.03 | Mean Dose Reduction (Cpd. in combination) [1, 7]: 8.44 ± 1.27 | Mean Dose Reduction (PRO 140) [1, 7]: 1.92 ± 0.40 | Mean Dose Reduction (2D7) [3]: 3.25 ± 0.56 | Mean Dose Reduction (Cpd in combination) [3]: 4.04 ± 0.78 | Mean CI ± stdev [3, 10]: 1.12±0.32 | Mean DR (Drug 1) [3, 10]: 1.48 ± 0.96 | CI90 ([3]; SCH-D and UK-427,857 1:1, experiment depicted in FIG. 11B): 0.73 | IC90 [3, 11]: 34 nM | IC90 ([3]; read-out: IC90 of the combination, 1:1 fixed molar ratio combination of SCH-D and UK-427,857, FIG. 11B): 31 nM | IC50 ([2]; read-out: IC50): 0.34 nM | IC90 ([2]; read-out: IC90): 14 nM

Cc1nnc(C(C)C)n1C1CC2CCC(C1)N2CC[C@H](NC(=O)C1CCC(F)(F)CC1)c1ccccc1 (some centres unmarked) [UK-427,857]
Mean Dose Reduction (Cpd in combination) [1, 4]: 2.98 ± 0.65 | Mean Dose Reduction (PRO 140) [1, 4]: 4.16 ± 0.41 | Mean Dose Reduction (Cpd. in combination) [1, 6]: 1.58 ± 0.17 | Mean Dose Reduction (PRO 140) [1, 6]: 11.31 ± 2.14 | Mean Dose Reduction (Cpd. in combination) [1, 7]: 7.25 ± 2.19 | Mean Dose Reduction (PRO 140) [1, 7]: 2.00 ± 0.35 | IC90 [3, 12]: 21 nM | IC90 [3, 11]: 59 nM | IC90 ([3]; read-out: IC90 of the combination, 1:1 fixed molar ratio combination of PRO 140 and UK-427,857, FIG. 11A): 4.6 nM | IC50 [2]: 0.87 nM | IC90 [2]: 13 nM | CI90 ([2]; labelled 1st inhibitor with 2nd inhibitor SCH-D): 0.86 ± 0.28

B1: PRO 140: humanized IgG4,κ anti-CCR5 monoclonal antibody, humanized version of murine mAb PA14 (antibody, chains of the INN, looked up, V domains shown)
VH: EVQLVESGGGLVKPGGSLRLSCAASGYTFSNYWIGWVRQAPGKGLEWIGDIYPGGNYIRNNEKFKDKTTLSADTSKNTAYLQMNSLKTEDTAVYYCGSSFGSNYVFAWFTYWGQGTLVTVSS
VL: DIVMTQSPLSLPVTPGEPASISCRSSQRLLSSYGHTYLHWYLQKPGQSPQLLIYEVSNRFSGVPDRFSGSGSGTDFTLKISRVEAEDVGVYYCSQSTHVPLTFGQGTKVEIK
Mean Dose Reduction (2D7) [3]: 2.54 ± 0.13 | Mean Dose Reduction (Cpd in combination) [3]: 1.87 ± 0.07 | IC50 [3, 12]: 2.9 nM | IC90 [3, 12]: 11 nM | CI50 [3, 5]: 0.96 | IC50 ([2]; read-out: IC50): 1.3 nM | IC90 ([2]; read-out: IC90): 20 nM | CI50 [2, 8]: 1.0 ± 0.27 | CI90 [2, 8]: 0.86 ± 0.33
